Test results published in patent US20260297081A1, “COMPOUNDS AND METHODS OF TREATING CANCERS” (Cullgen Inc., priority 2023, published 2026).

Tests used:
Calu-1 cells = test: Anti-proliferation (viability) of NSCLC Calu-1 cells, 3 days (Table 7, FIG. 2B); type: cell-based; settings: Homo sapiens, 72 h; Calu-1 cells, 3 days, 10-point serial dilution; read-out: GI IC50 in Calu-1
Summary of the method: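 Heterobifunctional compounds are tested in 10-point serial dilutions on Calu-1 (3-day exposure) and T47D (6-day exposure) cells.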

MCF7 cells = test: Anti-proliferation (viability) of MCF7 cells (Table 7, FIG. 2B); type: cell-based; settings: Homo sapiens, MCF7, MCF7 cells, 3-6 days, 10-point serial dilution; read-out: GI IC50 in MCF-7

Row | SMILES | IC50 (Calu-1 cells) | IC50 (MCF7 cells)
1 | CC(=O)c1c(C)c2cnc(Nc3ccc(N4CCN(C5CCN(C(=O)C67CC(Nc8nc(NC(C)C)ccc8C(=O)Nc8ccc(N(C)C)nn8)(C6)C7)C5)CC4)cn3)nc2n(C2CCCC2)c1=O (centres unmarked) [CPD-534, 2-((3-(3-(4-(6-((6-acetyl-8-cyclopentyl-5-methyl-7-oxo-7,8-dihydropyrido[2,3-d]pyrimidin-2-yl)amino)pyridin-3-yl)piperazin-1-yl)pyrrolidine-1-carbonyl)bicyclo[1.1.1]pentan-1-yl)amino)-N-(6-(dimethylamino)pyridazin-3-yl)-6-(isopropylamino)nicotinamide] | ≤ 10 nM | < 50 nM
2 | CC(C)Nc1ccc(C(=O)Nc2ccc(N(C)C)nn2)c(NC2CCC(C(=O)N3CCC(N4CCN(c5ccc(Nc6ncc7ccc(=O)n(C8CCCC8)c7n6)nc5)CC4)C3)CC2)n1 (centres unmarked) [CPD-535, 2-((4-(3-(4-(6-((8-cyclopentyl-7-oxo-7,8-dihydropyrido[2,3-d]pyrimidin-2-yl)amino)pyridin-3-yl)piperazin-1-yl)pyrrolidine-1-carbonyl)cyclohexyl)amino)-N-(6-(dimethylamino)pyridazin-3-yl)-6-(isopropylamino)nicotinamide] | 10 to 50 nM | 50 to 100 nM
3 | CC(=O)c1c(C)c2cnc(Nc3ccc(CN4CCN(C(=O)CN5CC6(CC(Nc7nc(NC(C)C)ccc7C(=O)Nc7ccc(N(C)C)nn7)C6)C5)CC4)cn3)nc2n(C2CCCC2)c1=O [CPD-538, 2-((2-(2-(4-((6-((6-acetyl-8-cyclopentyl-5-methyl-7-oxo-7,8-dihydropyrido[2,3-d]pyrimidin-2-yl)amino)pyridin-3-yl)methyl)piperazin-1-yl)-2-oxoethyl)-2-azaspiro[3.3]heptan-6-yl)amnion)-N-(6-(dimethylamino)pyridazin-3-yl)-6-(isopropylamino)nicotinamide] | ≤ 10 nM | 50 to 100 nM
4 | CC(=O)c1c(C)c2cnc(Nc3ccc(CN4CCN(C(=O)CN5CCC(Nc6nc(NC(C)C)ccc6C(=O)Nc6ccc(N(C)C)nn6)CC5)CC4)cn3)nc2n(C2CCCC2)c1=O [CPD-541, 2-((1-(2-(4-((6-((6-acetyl-8-cyclopentyl-5-methyl-7-oxo-7,8-dihydropyrido[2,3-d]pyrimidin-2-yl)amino)pyridin-3-yl)methyl)piperazin-1-yl)-2-oxoethyl)piperidin-4-yl)amino)-N-(6-(dimethylamino)pyridazin-3-yl)-6-(isopropylamino)nicotinamide] | ≤ 10 nM | < 50 nM
5 | CC(=O)c1c(C)c2cnc(Nc3ccc(N4CCC(N5CCC[C@H]5C(=O)NCC5CC(Nc6nc(NC(C)C)ccc6C(=O)Nc6ccc(N(C)C)nn6)C5)CC4)cn3)nc2n(C2CCCC2)c1=O (stereo partly drawn) [CPD-542, (S)-2-((3-((1-(1-(6-((6-acetyl-8-cyclopentyl-5-methyl-7-oxo-7,8-dihydropyrido[2,3-d]pyrimidin-2-yl)amino)pyridin-3-yl)piperidin-4-yl)pyrrolidine-2-carboxamido)methyl)cyclobutyl)amino)-N-(6-(dimethylamino)pyridazin-3-yl)-6-(isopropylamino)nicotinamide] | ≤ 10 nM | > 100 nM
6 | CC(=O)c1c(C)c2cnc(Nc3ccc(N4CCC(N5CCC[C@H]5C(=O)NC5CC6(C5)CC(Nc5nc(NC(C)C)ccc5C(=O)Nc5ccc(N(C)C)nn5)C6)CC4)cn3)nc2n(C2CCCC2)c1=O (stereo partly drawn) [CPD-543, (S)-2-((6-(1-(1-(6-((6-acetyl-8-cyclopentyl-5-methyl-7-oxo-7,8-dihydropyrido[2,3-d]pyrimidin-2-yl)amino)pyridin-3-yl)piperidin-4-yl)pyrrolidine-2-carboxamido)spiro[3.3]heptan-2-yl)amino)-N-(6-(dimethylamino)pyridazin-3-yl)-6-(isopropylamino)nicotinamide] | ≤ 10 nM | < 50 nM
7 | CC(=O)c1c(C)c2cnc(Nc3ccc(N4CCC(N5CCC[C@H]5C(=O)N5CC6(CC(Nc7nc(NC(C)C)ccc7C(=O)Nc7ccc(N(C)C)nn7)C6)C5)CC4)cn3)nc2n(C2CCCC2)c1=O [CPD-544, 2-((2-((1-(6-((6-acetyl-8-cyclopentyl-5-methyl-7-oxo-7,8-dihydropyrido[2,3-d]pyrimidin-2-yl)amino)pyridin-3-yl)piperidin-4-yl)-L-prolyl)-2-azaspiro[3.3]heptan-6-yl)amino)-N-(6-(dimethylamino)pyridazin-3-yl)-6-(isopropylamino)nicotinamide] | ≤ 10 nM | < 50 nM
8 | CC(=O)c1c(C)c2cnc(Nc3ccc(N4CCN(C5CCN(C(=O)N6CC7(CCC(Nc8nc(NC(C)C)ccc8C(=O)Nc8ccc(N(C)C)nn8)C7)C6)C5)CC4)cn3)nc2n(C2CCCC2)c1=O (centres unmarked) [CPD-545, 2-((2-(3-(4-(6-((6-acetyl-8-cyclopentyl-5-methyl-7-oxo-7,8-dihydropyrido[2,3-d]pyrimidin-2-yl)amino)pyridin-3-yl)piperazin-1-yl)pyrrolidine-1-carbonyl)-2-azaspiro[3.4]octan-6-yl)amino)-N-(6-(dimethylamino)pyridazin-3-yl)-6-(isopropylamino)nicotinamide] | 10 to 50 nM | > 100 nM
9 | CC(=O)c1c(C)c2cnc(Nc3ccc(CN4CCN(CC(=O)N5CCC6(CCC(Nc7nc(NC(C)C)ccc7C(=O)Nc7cc(C)n(C)n7)C6)C5)CC4)cn3)nc2n(C2CCCC2)c1=O (centres unmarked) [CPD-547, 2-((2-(2-(4-((6-((6-acetyl-8-cyclopentyl-5-methyl-7-oxo-7,8-dihydropyrido[2,3-d]pyrimidin-2-yl)amino)pyridin-3-yl)methyl)piperazin-1-yl)acetyl)-2-azaspiro[4.4]nonan-7-yl)amino)-N-(1,5-dimethyl-1H-pyrazol-3-yl)-6-(isopropylamino)nicotinamide] | ≤ 10 nM | < 50 nM
10 | CC(=O)c1c(C)c2cnc(Nc3ccc(CN4CCN(CC(=O)N5CCC6(CCC(Nc7nc(NC(C)C)ccc7C(=O)Nc7cn(C)c(C8CC8)n7)C6)C5)CC4)cn3)nc2n(C2CCCC2)c1=O (centres unmarked) [CPD-548, 2-((2-(2-(4-((6-((6-acetyl-8-cyclopentyl-5-methyl-7-oxo-7,8-dihydropyrido[2,3-d]pyrimidin-2-yl)amino)pyridin-3-yl)methyl)piperazin-1-yl)acetyl)-2-azaspiro[4.4]nonan-7-yl)amino)-N-(2-cyclopropyl-1-methyl-1H-imidazol-4-yl)-6-(isopropylamino)nicotinamide] | ≤ 10 nM | < 50 nM
11 | CC(=O)c1c(C)c2cnc(Nc3ccc(CN4CCN(CC(=O)N5CCC6(CCC(Nc7nc(NC(C)C)ccc7C(=O)Nc7cc8n(n7)CCC8)C6)C5)CC4)cn3)nc2n(C2CCCC2)c1=O (centres unmarked) [CPD-549, 2-((2-(2-(4-((6-((6-acetyl-8-cyclopentyl-5-methyl-7-oxo-7,8-dihydropyrido[2,3-d]pyrimidin-2-yl)amino)pyridin-3-yl)methyl)piperazin-1-yl)acetyl)-2-azaspiro[4.4]nonan-7-yl)amino)-N-(5,6-dihydro-4H-pyrrolo[1,2-b]pyrazol-2-yl)-6-(isopropylamino)nicotinamide] | ≤ 10 nM | < 50 nM
12 | CC(=O)c1c(C)c2cnc(Nc3ccc(N4CCN(C5CCN(C(=O)[C@H]6CC[C@H](Nc7nc(NC(C)C)ccc7-c7nc8cnc(N(C)C)cc8[nH]7)CC6)C5)CC4)cn3)nc2n(C2CCCC2)c1=O (stereo partly drawn) [CPD-552, trans-6-acetyl-8-cyclopentyl-2-((5-(4-(1-(trans-4-((3-(6-(dimethylamino)-3H-imidazo[4,5-c]pyridin-2-yl)-6-(isopropylamino)pyridin-2-yl)amino)cyclohexane-1-carbonyl)pyrrolidin-3-yl)piperazin-1-yl)pyridin-2-yl)amino)-5-methylpyrido[2,3-d]pyrimidin-7(8H)-one] | ≥ 50 nM | > 100 nM
13 | CCN1CCc2cc(-c3nc(Nc4ccc(CN5CCN(CC(=O)N6CC7(CC(Nc8nc(NC(C)C)ccc8C(=O)Nc8ccc(N(C)C)nn8)C7)C6)CC5)cn4)ncc3F)ccc2C1=O [CPD-553, N-(6-(dimethylamino)pyridazin-3-yl)-2-((2-(2-(4-((6-((4-(2-ethyl-1-oxo-1,2,3,4-tetrahydroisoquinolin-6-yl)-5-fluoropyrimidin-2-yl)amino)pyridin-3-yl)methyl)piperazin-1-yl)acetyl)-2-azaspiro[3.3]heptan-6-yl)amino)-6-(isopropylamino)nicotinamide] | ≥ 50 nM | > 100 nM
14 | CCN1CCc2cc(-c3nc(Nc4ccc(CN5CCN(CC(=O)NC6CC7(C6)CC(Nc6nc(NC(C)C)ccc6C(=O)Nc6ccc(N(C)C)nn6)C7)CC5)cn4)ncc3F)ccc2C1=O (centres unmarked) [CPD-554, N-(6-(dimethylamino)pyridazin-3-yl)-2-((6-(2-(4-((6-((4-(2-ethyl-1-oxo-1,2,3,4-tetrahydroisoquinolin-6-yl)-5-fluoropyrimidin-2-yl)amino)pyridin-3-yl)methyl)piperazin-1-yl)acetamido)spiro[3.3]heptan-2-yl)amino)-6-(isopropylamino)nicotinamide] | ≥ 50 nM | > 100 nM
15 | CC(=O)c1c(C)c2cnc(Nc3ccc(N4CCN(C5CCN(C(=O)N6CC7(CCC(Nc8nc(NC(C)C)ccc8C(=O)Nc8ccc(N(C)C)nn8)CC7)C6)C5)CC4)cn3)nc2n(C2CCCC2)c1=O (centres unmarked) [CPD-555, 2-((2-(3-(4-(6-((6-acetyl-8-cyclopentyl-5-methyl-7-oxo-7,8-dihydropyrido[2,3-d]pyrimidin-2-yl)amino)pyridin-3-yl)piperazin-1-yl)pyrrolidine-1-carbonyl)-2-azaspiro[3.5]nonan-7-yl)amino)-N-(6-(dimethylamino)pyridazin-3-yl)-6-(isopropylamino)nicotinamide] | ≤ 10 nM | 50 to 100 nM
16 | CC(=O)c1c(C)c2cnc(Nc3ccc(N4CCN(C5CCN(C(=O)C6CCC7(CC(Nc8nc(NC(C)C)ccc8C(=O)Nc8ccc(N(C)C)nn8)C7)C6)C5)CC4)cn3)nc2n(C2CCCC2)c1=O (centres unmarked) [CPD-556, 2-((6-(3-(4-(6-((6-acetyl-8-cyclopentyl-5-methyl-7-oxo-7,8-dihydropyrido[2,3-d]pyrimidin-2-yl)amino)pyridin-3-yl)piperazin-1-yl)pyrrolidine-1-carbonyl)spiro[3.4]octan-2-yl)amino)-N-(6-(dimethylamino)pyridazin-3-yl)-6-(isopropylamino)nicotinamide] | ≤ 10 nM | < 50 nM
